Counter-ions that a name gives are not always drawn. Like-named read-outs stand apart in the source and are kept apart here. One block for each molecule: values may come before it.
Test system: amyloid β production in transfected H4 (human neuroglioma) cells stably expressing APP constructs
Assay: In vitro cell-based assay of inhibitors of amyloid β production (ELISA)
Method in brief: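 Test agents are screened at 10-100 μM for about 16 hours on cells stably expressing wild-type or variant APP. Secreted Aβ is measured by ELISA and compared with control-treated cells.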

[1] = transfected H4 cells stably expressing APP, approximately 16 hours incubation, amyloid β in medium by ELISA, Table B, read-out: ACTIVITY (IC50, inhibition of amyloid β production)
[2] = Homo sapiens, 16 h, transfected H4 cells stably expressing APP, approximately 16 hours incubation, amyloid β in medium by ELISA, Table B, read-out: ACTIVITY (IC50, inhibition of amyloid β production)
[3] = transfected H4 cells stably expressing APP constructs, approximately 16 hours incubation, amyloid β in medium by ELISA, read-out: ACTIVITY (IC50, inhibition of amyloid β production)
[4] = transfected H4 cells stably expressing APP, approx. 16 h incubation, amyloid β in medium by ELISA, read-out: ACTIVITY (IC50, inhibition of amyloid β production)
[5] = Homo sapiens, 16 h, transfected H4 cells stably expressing APP, approximately 16 hours incubation, amyloid β in medium by ELISA, read-out: ACTIVITY (IC50, inhibition of amyloid β production)
[6] = transfected H4 cells stably expressing APP, approximately 16 hours incubation, amyloid β in medium by ELISA, read-out: ACTIVITY (IC50, inhibition of amyloid β production)
[7] = Homo sapiens, 16 h, transfected H4 cells stably expressing APP constructs, approximately 16 hours incubation, amyloid β in medium by ELISA, read-out: ACTIVITY (IC50, inhibition of amyloid β production)

- IC50 [1]: 100 to 500 nM
Molecule: COC(=O)[C@H](CSCCCc1cc(F)ccc1[C@@H](C)N(c1cc(F)ccc1F)S(=O)(=O)c1ccc(Cl)cc1)NC(=O)OC(C)(C)C [Example 485]

- IC50 [2]: 50 to 100 nM
Molecule: CC(c1ccccc1OCCCN(C)C(=O)C12CCC(C)(C(=O)O1)C2(C)C)N(c1cc(F)ccc1F)S(=O)(=O)c1ccc(Cl)cc1 (centres unmarked) [Example 387, N-{3-[2-(1-{[(4-chlorophenyl)sulfonyl]-2,5-difluoroanilino}ethyl)phenoxy]propyl}-N,4,7,7-tetramethyl-3-oxo-2-oxabicyclo[2.2.1]heptane-1-carboxamide]

- IC50 (Homo sapiens, 16 h, transfected H4 cells stably expressing APP, approx. 16 h incubation, amyloid β in medium by ELISA, read-out: ACTIVITY (IC50, inhibition of amyloid β production)): 100 to 500 nM
Molecule: O=C(c1cccc(F)c1)N1CCCCC1CCOc1ccccc1CN(c1cc(F)ccc1F)S(=O)(=O)c1ccc(Cl)cc1 (centres unmarked) [Example 661, 4-chloro-N-(2,5-difluorophenyl)-N-(2-{2-[1-(3-fluorobenzoyl)-2-piperidinyl]ethoxy}benzyl)benzenesulfonamide]

- IC50 [2]: 50 to 100 nM
Molecule: CC(c1ccccc1OCCCN(C)C(=O)CCC1CCCC1)N(c1cc(F)ccc1F)S(=O)(=O)c1ccc(Cl)cc1 (centres unmarked) [Example 428, N-{3-[2-(1-{[(4-chlorophenyl)sulfonyl]-2,5-difluoroanilino}ethyl)phenoxy]propyl}-3-cyclopentyl-N-methylpropanamide]

- IC50 (Homo sapiens, 16 h, transfected H4 cells expressing APP, approximately 16 hours incubation, amyloid β in medium by ELISA, read-out: ACTIVITY (IC50, inhibition of amyloid β production)): > 10000 nM
Molecule: C[C@H](COC(=O)NCCn1ccnc1)N(c1cc(Cl)ccc1CO)S(=O)(=O)c1ccc(Cl)cc1 [Example 1293]

- IC50 [6]: > 500 nM
Molecule: O=C(OC[C@H](c1ccccc1)N(c1cc(F)ccc1F)S(=O)(=O)c1ccc(Cl)cc1)c1ccncc1 [Example 904, (2S)-2-{[(4-chlorophenyl)sulfonyl]-2,5-difluoroanilino}-2-henylethyl isonicotinate]

- IC50 [1]: 50 to 100 nM
Molecule: CONC(=O)CCCOc1ccccc1C(C)N(c1cc(F)ccc1F)S(=O)(=O)c1ccc(Cl)cc1 (centres unmarked) [Example 379, 4-[2-(1-{[(4-Chlorophenyl)sulfonyl]-2,5-difluoroanilino}ethyl)phenoxy]-N-methoxybutanamide]

- IC50 [5]: 100 to 500 nM
Molecule: CCC1CCCCN1CCCOc1ccccc1CN(c1ccccc1)S(=O)(=O)c1ccc(Cl)cc1 (centres unmarked) [Example 865, 4-chloro-N-{2-[3-(2-ethyl-1-piperidinyl)propoxy]benzyl}-N-phenylbenzenesulfonamide hydrochloride]

- IC50 [6]: > 500 nM
Molecule: O=C(OC[C@H](c1ccccc1)N(c1cc(F)ccc1F)S(=O)(=O)c1ccc(Cl)cc1)c1cccnc1 [Example 1006, (2S)-2-({[(4-chlorophenyl)sulfonyl]-2,5-difluoroanilino}-2-phenylethyl nicotinate]

- IC50 [4]: 100 to 500 nM
Molecule: CN(CCCOc1ccccc1CN(c1cc(F)ccc1F)S(=O)(=O)c1ccc(Cl)cc1)C(=O)CCCCC1SCC2NC(=O)NC21 (centres unmarked) [Example 666, N-{3-[2-({[(4-chlorophenyl)sulfonyl]-2,5-difluoroanilino}methyl)phenoxy]propyl}-N-methyl-5-(2-oxohexahydro-1H-thieno[3,4-d]imidazol-4-yl)pentamide]

- IC50 [7]: ≤ 25 nM
Molecule: CC(CC[C@@H](C)N(c1cc(Cl)ccc1Cl)S(=O)(=O)c1ccc(Cl)cc1)N1CCSC1C(=O)O (stereo partly drawn) [Example 1106, 4-chloro-N-(2,5-dichlorophenyl)-N-[4-(2-carboxy-3-thiazolidinyl)-1(R)-methylpentyl]benzenesulfonamide]

- IC50 [2]: 50 to 100 nM
Molecule: CC(NC(=O)OCCc1cc(F)ccc1[C@@H](C)N(c1cc(F)ccc1F)S(=O)(=O)c1ccc(Cl)cc1)c1ccccc1 (stereo partly drawn) [Example 385, 2-[2-((1R)-1-{[(4-chlorophenyl)sulfonyl]-2,5-difluoroanilino}ethyl)-5-fluorophenyl]ethyl 1 phenylethylcarbamate]

- IC50 [6]: > 500 nM
Molecule: O=S(=O)(c1ccc(Cl)cc1)N(Cc1ccccc1OCCC[N+]1([O-])CCCCC1)c1ccccc1 [Example 883]

- IC50 [7]: > 10000 nM
Molecule: CN(C)CCCOc1ccccc1CN(c1ccccc1)S(=O)(=O)c1ccccc1[N+](=O)[O-] [Example 1084, N-{2-[3-(dimethylamino)propoxy]benzyl}-2-nitro-N-phenylbenzenesulfonamide]

Further lines, the molecule ahead of its results:

Molecule: CCSCCC[C@@H](C)N(c1cc(Cl)ccc1CO)S(=O)(=O)c1ccc(SCC)cc1 [Example 1232, 4-ethylthio-N-[5-chloro-2-(hydroxymethyl)phenyl]-N-[1(R)-methyl-(4-ethylthio)butyl]benzenesulfonamide]
- IC50 [3]: > 500 nM

Molecule: N-{3-[2-(1-{[(4-chlorophenyl)sulfonyl]-2,5-difluoroanilino}ethyl)phenoxy]butyl}-N-ethyl-2-furamide [Example 708]
- IC50 [4]: 100 to 500 nM

Molecule: O=S(=O)(Cc1ccccc1)N(Cc1ccccc1OCCCN1CCCCC1)c1cc(Cl)ccc1Cl [Example 992, N-(2,5-dichlorophenyl)(phenyl)-N-{2-[3-(1-piperidinyl)propoxy]benzyl}methanesulfonamide hydrochloride]
- IC50 [5]: > 500 nM

Molecule: C[C@H](CCN1CCCC(S(C)(=O)=O)C1)N(c1cc(Cl)ccc1Cl)S(=O)(=O)c1ccc(Cl)cc1 (stereo partly drawn) [Example 1132, 4-chloro-N-(2,5-dichlorophenyl)-N-[3-[(3-methylsulfonyl)-1-piperidinyl]-1(R)-methylpropyl]benzenesulfonamide]
- IC50 [3]: 50 to 100 nM

Molecule: O=S(=O)(/C=C/c1ccccc1)N(Cc1ccccc1OCCCN1CCCCC1)c1cc(Cl)ccc1Cl [Example 260, (E)-N-(2,5-dichlorophenyl)-2-phenyl-N-{2-[3-(1-piperidinyl)propoxy]benzyl}ethenesulfonamide hydrochloride]
- IC50 (Table B, transfected H4 cells stably expressing APP, approximately 16 hours incubation, amyloid β in medium by ELISA, read-out: ACTIVITY (inhibitory concentration IC50, inhibition of amyloid β production)): 25 to 50 nM

Molecule: N-{3-[2-({[(4-chlorophenyl)sulfonyl]-2,5-difluoroanilino}methyl)phenoxy]propyl}-N-methylbutanamide [Example 638]
- IC50 [4]: 100 to 500 nM

Molecule: 4-chloro-N-(2,5-dichlorophenyl)-N-[3-[2-[4-chloro-N-(2,5-dichlorophenyl)-N-[(3-amino)-1(R)-methylpropyl]benzenesulfonamide]-3,4-dioxo-1-cyclobutenyl)amine-1(R)- [Example 1143]
- IC50 [3]: 100 to 500 nM

Molecule: CC(C)[C@H](NC(=O)CCCC[C@@H](C)N(c1cc(Cl)ccc1F)S(=O)(=O)c1ccc(Cl)cc1)C(=O)O [Example 1262, (R)-4-Chloro-N-(5-chloro-2-fluorophenyl)-N-[6-[N-(S)-[1-(carboxy)-2-methylpropyl]amino]-1-methyl-6-oxohexyl]benzenesulfonamide]
- IC50 [3]: ≤ 25 nM

Molecule: CN1CCCC1CCOc1ccccc1CN(c1ccccc1)S(=O)(=O)c1ccc(Cl)cc1 (centres unmarked) [Example 962, 4-chloro-N-{2-[2-(1-methyl-2-pyrrolidinyl)ethoxy]benzyl}-N-phenylbenzenesulfonamide hydrochloride]
- IC50 [5]: > 500 nM

Molecule: 3-[2-(2-{[(4-chlorophenyl)sulfonyl]-2,5-difluoroanilino}-1-methylethyl)-5-fluorophenyl]butanoic acid [Example 940]
- IC50 [6]: > 500 nM

Molecule: CC(C)C[C@H](NC(=O)CCCC[C@@H](C)N(c1cc(Cl)ccc1F)S(=O)(=O)c1ccc(Cl)cc1)C(=O)O [Example 548, (R)-4-Chloro-N-(5-chloro-2-fluorophenyl)-N-[6-[N-(S)-[1-(carboxy)-3-methylbutyl]amino]-1-methyl-6-oxohexyl]benzenesulfonamide]
- IC50 [4]: 100 to 500 nM

Molecule: O=S(=O)(c1ccc(Cl)cc1)N(Cc1ccccc1OCCCN1CCC(CO)CC1)c1ccccc1 [Example 922, 4-chloro-N-(2-{3-[4-(hydroxymethyl)-1-piperidinyl]propoxy}benzyl)-N-phenylbenzenesulfonamide hydrochloride]
- IC50 [5]: > 500 nM

Molecule: O=S(=O)(c1ccc(Cl)cc1)N(Cc1ccccc1OCC[S+]([O-])C1CCCCC1)c1cc(F)ccc1F (centres unmarked) [Example 1050, 4-chloro-N-{2-[2-(cyclohexylsulfinyl)ethoxy]benzy}-N-(2,5-difluorophenyl)benzenesulfonamide]
- IC50 [6]: > 500 nM

Molecule: N-{3-[2-({[(4-chlorophenyl)sulfonyl]-2,5-difluoroanilino}methyl)phenoxy]propyl}-2-iodo-N-methylbenzamide [Example 716]
- IC50 [4]: 100 to 500 nM

Molecule: N-{2-[2-(1-{[(4-chlorophenyl)sulfonyl]-2,5-difluoroanilino}ethyl)phenoxy]ethyl}-N-ethyl-2-(2-thienyl)acetamide [Example 705]
- IC50 [4]: 100 to 500 nM

Molecule: N-{3-[2-(1-{[(4-chlorophenyl)sulfonyl]-2,5-difluoroanilino}ethyl)phenoxy]propyl}-2-naphthamide [Example 808]
- IC50 [6]: 100 to 500 nM

Molecule: CC(c1ccccc1OCCCNC(=O)c1cccnc1)N(c1cc(F)ccc1F)S(=O)(=O)c1ccc(Cl)cc1 (centres unmarked) [Example 359, N-{3-[2-(1-{[(4-chlorophenyl)sulfonyl]-2,5-difluoroanilino}ethyl)phenoxy]propyl}nicotinamide]
- IC50 [1]: 50 to 100 nM

Molecule: O=S(=O)(c1ccc(Cl)cc1)N(Cc1ccccc1OCCCN1CCCCC1)c1cccc(Cl)c1 [Example 235, 4-Chloro-N-(3-chlorophenyl)-N-{2-[3-(1-piperidinyl)propoxy]benzyl}benzenesulfonamide Hydrochloride]
- IC50 (read-out: ACTIVITY (inhibitory concentration IC50, inhibition of amyloid β production)): 25 to 50 nM

Reference: patent publication US6967196B1, “Sulfonamide compounds and uses thereof” (Bristol-Myers Squibb Company, priority 1999, dated 2005)
